Results published in US8187373B2, “Printing inks for offset and/or high printing containing NIR absorbers and NIR absorbers soluble in offset and/or high printing inks” (BASF SE, priority 2004, dated 2012).

How the values were obtained:
[1] = Testing of the NIR absorbers in yellow heatset offset printing ink, printed on paper; format: physicochemical; details: 0.5% by weight in commercial yellow heatset offset printing ink
Method: In each case 0.5% by weight of the absorber A1 or A2 not according to the invention was added to a commercial yellow heatset offset printing ink, and the mixtures were thoroughly stirred.
Samples of the inks obtained were printed on paper.
The procedure was as in the comparative example, except that in each case 0.5% by weight of the novel NIR absorber B2 or B4 was used.

[2] = Extinction of a thin layer of printing varnish containing NIR absorber (absorption spectrum 400-1000 nm); format: physicochemical; details: 1.0% by weight NIR absorber
Method: Two conventional varnishes for the preparation of offset printing inks were used for the test. Varnishes are prepared formulations comprising binder and solvent, but as yet without colorant. In this way, it is possible to study the behavior of the NIR absorber also spectroscopically without interference by the colorant.
A varnish for the preparation of heatset inks comprising about 45% by weight of a low-aromatics mineral oil (boiling range from 240 to 270° C.), about 45% by weight of a rosin-modified phenol resin and about 10% by weight of an alkyd resin was used, as well as a varnish for the preparation of sheet-fed offset inks comprising about 45% by weight of a low-aromatics mineral oil (boiling range from 260 to 290° C.), about 45% by weight of a rosin-modified phenol resin and about 10% by weight of linseed oil.
Furthermore, a thin layer of above liquids was produced and was investigated spectroscopically. For this purpose, the above liquids were diluted 1:5 with dichloromethane, and the resulting solution was applied to a microscope slide by means of a knife coater so that, after evaporation of the dichloromethane, a layer of about 2 μm thick remained. An absorption spectrum (400-1000 nm) of this layer was then recorded after 2 hours.

| Structure (SMILES) | dissolution of NIR absorber in the offset ink [1] | extinction E at 810 nm [2] |
| --- | --- | --- |
| CCN1/C(=C/C=C2\CCC(/C=C/C3=[N+](CC)c4ccccc4C3(C)C)=C2Cl)C(C)(C)c2ccccc21 [Compound A2] | did not dissolve | < 0.01 |
| CCN1/C(=C/C=C2\CCC(/C=C/C3=[N+](CC)c4ccccc4C3(C)C)=C2Cl)C(C)(C)c2ccccc21 [Compound B4] | dissolved completely | 0.83 |
